Results reported in US7935853B2, “Micronized composition of a 2,4-disubstituted phenol derivative” (priority 2008, dated 2011).
Values joined by “and” are separate entries in the source; they are usually repeats but may differ in a detail not shown here. Equal values may be shown once.

System: pulmonary fibrosis induced by bleomycin in C57/BL6 mice
Test: Model of pulmonary fibrosis induced by bleomycin in mice (bronchoalveolar lavage fluid)
Assay type: in vivo, mouse
Description: In the study, female, young and healthy C57/BL6 mice were used, of approximately 9-10 weeks of age at the start of the experimental phase. The choice of C57/BL6 mice was because this is the most commonly used mouse strain in the pulmonary fibrosis model.
Three experimental groups were used in the study:
Group A: (positive control): Bleomycin+Vehicle (PBS) n=10
Group B: Bleomycin+2,4,6-triiodophenol micronized 10 mg/kg q.d. (every 12 hours) n=10
Group C: No treatment (healthy animals) n=1
Where n is the number of animals in each experimental group.
The test item was administered as a suspension in 0.25% methylcellulose (the vehicle). The positive control group received the vehicle.
Both the test item and the vehicle were administered orally in a volume of 5 ml/kg twice per day (q.d.) every 12 hours.
On day 0 pulmonary fibrosis was induced by intratracheal instillation of 0.075 units of bleomycin in 50 μl of sterile saline solution into the lungs of each animal. Immediately afterwards 150 μl of air were introduced intratracheally into each mouse to aid in the pulmonary distribution of the bleomycin.
On day 7 after bleomycin administration, treatment with the test item or vehicle was commenced by oral administration. Treatment was carried out twice per day (every 12 hours) and was continued for 15 days.
On day 21 after bleomycin administration a bronchoalveolar lavage was carried out on all animals. To this effect, mice were anaesthetized with sodium pentobarbital and the trachea of each animal was cannulated. Afterwards 1 ml of PBS at 37° C. was instilled into each lung and re-aspirated back with the use of a syringe. This process was repeated 5 times, each time collecting the aspirated liquid in a vial and combining the liquid obtained from the 5 lavages. The recovered volume of bronchoalveolar lavage was adjusted for all animals to 5 mls.
Once the bronchoalveolar lavage fluid had been obtained, a sample was taken in order to determine cellular viability by trypan blue exclusion. Additionally, a sample of lavage fluid was kept frozen (−20° C.) for subsequent determination of CCL5 and TGF-β concentration by ELISA.
The remaining bronchoalveolar lavage fluid was spun in a cytocentrifuge and stained (Diff-Quick) in order to carry out a differential cell count.
All animals were weighed on arrival at the laboratory and each day during the treatment phase of the experimental period until the end of the study.
For each animal cell viability in bronchoalveolar lavage fluid was determined by Trypan Blue exclusion, and a differential cell count was done by staining cytocentrifuged samples with Diff-Quick stain (this was done on a population of approximately 200 cells per sample). Additionally, the concentration of CCL5 and TGF-β were also determined in bronchoalveolar lavage fluid samples by the use of commercially available ELISA kits specific for mice chemokines from R&D Systems.
The statistical significance of the results was evaluated by use of the statistical package Graphpad Instat 3.
All comparisons were evaluated by the use of Student's t-test (two-way, unpaired data). Values of P≦0.05 were taken as significant.

[1] = 10 mg/kg oral twice per day, starting 7 days after bleomycin
[2] = group mean, day 21, 10 mg/kg oral twice per day from day 7
[3] = group mean, day 21 after bleomycin, 10 mg/kg oral twice per day from day 7
[4] = individual mice, day 21, 10 mg/kg oral twice per day from day 7, listed as Group B, 10 mg/kg

## Oc1c(I)cc(I)cc1I [Micronized, 2,4,6-triiodophenol]
[1]
  effect on bleomycin-induced increase of CCL5 and TGFβ in bronchoalveolar lavage fluid (in words): very significant inhibition
  effect on bleomycin-induced lymphocyte and neutrophil percentages in bronchoalveolar lavage fluid (in words): reduction of the bleomycin-induced increase in lymphocytes and neutrophil percentages
[2]
  CCL5 concentration in BALF, mean: 6.952 pg/mL
  TGFβ concentration in BALF, mean: 40.731 pg/mL
[3]
  Lymphocytes, differential cell count in bronchoalveolar lavage fluid (%): 34.35%
  Macrophages, differential cell count in bronchoalveolar lavage fluid (%): 60.33%
  Neutrophils, differential cell count in bronchoalveolar lavage fluid (%): 5.32%
[4]
  CCL5 concentration in BALF, individual animals: 1.887 pg/mL and 3.041 pg/mL and 6.426 pg/mL and 24.658 pg/mL and 3.426 pg/mL and 2.272 pg/mL
  TGFβ concentration in BALF, individual animals: 6.319 pg/mL and 8.389 pg/mL and 26.335 pg/mL and 38.069 pg/mL and 121.586 pg/mL and 9.770 pg/mL and 74.651 pg/mL
